Earlier results in US20220347144A1, “COMPOSITIONS AND METHODS FOR PREVENTING AND/OR REDUCING WEIGHT GAIN AND ASSOCIATED CONDITIONS” (University of Virginia Patent Foundation, priority 2019, published 2022).

Columns and labels:
rats [1] = conditions: triglyceride form, Kojima et al., 2010; cited from earlier work
rats [2] = conditions: in rapeseed oil, Hulan et al., 1977; cited from earlier work

SMILES	obesity (rats [1])	heart lesions (rats [2])
CCCCCCCCCCCCCCCCCCCCCC(=O)O [behenic acid]	prevented obesity	–
CCCCCCCC/C=C\CCCCCCCCCCCC(=O)O [erucic acid, (Z)-docos-13-enoic acid]	–	implicated in causing heart lesions
